Data as given in ChEMBL document CHEMBL1201862, “PubChem BioAssay data set” (2004).
The source made the active and inactive calls.

Experiments:
Protein Wnt-3a = Protein Wnt-3a (Mus musculus, UniProt P27467); assay: Wnt3a-driven reporter signaling inhibition, dose response, selectivity assay for Gli-SUFU antagonist project, Wnt-LIGHT cells, luminescence (AID 651570); format: functional; conditions: read-out: IC50_Mean;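 note: Wnt-LIGHT reporter cells stimulated with conditioned medium from Wnt3a-producing cells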
[1] = cytotoxicity toward NIH3T3 fibroblasts, dose response, counter-screen, cell-based, ATP luminescence, mouse fibroblasts (AID 2010); format: functional;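 note: cells exposed to compound for about 90 hours before reading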
[2] = inhibitors of intracellular T. cruzi replication, confirmation, NIH3T3 host cells, beta-gal luminescence (AID 2044); format: functional, cell-based;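 note: intracellular parasites grown in NIH/3T3 mouse fibroblasts as host cells; luminescent beta-galactosidase reporter signal from transgenic T. cruzi replicating inside host cells; inhibitors lower the luminescence signal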
[3] = molecular target: T1, High affinity choline transporter 1 (Homo sapiens, UniProt Q9GZV3); assay: CHT activators, dose response, cell-based, 10-point CRC, membrane potential dye (AID 602376); format: functional
T1 sequence (Q9GZV3 whole entry): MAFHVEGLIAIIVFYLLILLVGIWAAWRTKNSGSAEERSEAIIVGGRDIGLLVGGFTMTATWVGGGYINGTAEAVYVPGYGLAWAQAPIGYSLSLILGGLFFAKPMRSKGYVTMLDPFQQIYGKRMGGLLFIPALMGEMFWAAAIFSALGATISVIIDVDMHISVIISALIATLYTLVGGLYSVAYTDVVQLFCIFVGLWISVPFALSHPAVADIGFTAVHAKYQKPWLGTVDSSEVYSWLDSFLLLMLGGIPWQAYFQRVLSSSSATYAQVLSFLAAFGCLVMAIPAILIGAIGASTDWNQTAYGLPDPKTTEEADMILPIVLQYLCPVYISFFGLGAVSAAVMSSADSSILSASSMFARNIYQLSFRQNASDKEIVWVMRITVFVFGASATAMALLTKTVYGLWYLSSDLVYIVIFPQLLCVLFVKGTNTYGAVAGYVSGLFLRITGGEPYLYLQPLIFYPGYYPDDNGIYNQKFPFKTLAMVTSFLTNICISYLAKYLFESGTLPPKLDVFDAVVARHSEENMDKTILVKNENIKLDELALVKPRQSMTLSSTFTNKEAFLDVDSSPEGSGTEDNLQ

[4] = molecular target: Potassium voltage-gated channel subfamily KQT member 2 (Rattus norvegicus, UniProt O88943); assay: KCNQ2 potassium channel inhibitors, dose response, cell-based, automated electrophysiology, set II, rat KCNQ2 (AID 588637); format: functional
[5] = molecular target: T1, High affinity choline transporter 1; assay: CHT inhibitors, dose response, cell-based, 10-point CRC, membrane potential dye (AID 588401); format: functional;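 note: membrane potential dye fluorescence of choline-evoked depolarization via CHT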
[6] = molecular target: T1, High affinity choline transporter 1; assay: CHT inhibitors, dose response, cell-based, 5-point CRC, membrane potential dye (AID 504840); format: functional
[7] = molecular target: T2, Apoptotic protease-activating factor 1 (Homo sapiens, UniProt O14727); assay: SAR analysis of small molecule Activators of Apaf-1 in a Fluorescent assay.; format: functional; conditions: read-out: EC50_Mean;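 note: caspase-3 cleavage of fluorogenic Rh110 DEVD substrate downstream of apoptosome activation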
T2 sequence (O14727 whole entry): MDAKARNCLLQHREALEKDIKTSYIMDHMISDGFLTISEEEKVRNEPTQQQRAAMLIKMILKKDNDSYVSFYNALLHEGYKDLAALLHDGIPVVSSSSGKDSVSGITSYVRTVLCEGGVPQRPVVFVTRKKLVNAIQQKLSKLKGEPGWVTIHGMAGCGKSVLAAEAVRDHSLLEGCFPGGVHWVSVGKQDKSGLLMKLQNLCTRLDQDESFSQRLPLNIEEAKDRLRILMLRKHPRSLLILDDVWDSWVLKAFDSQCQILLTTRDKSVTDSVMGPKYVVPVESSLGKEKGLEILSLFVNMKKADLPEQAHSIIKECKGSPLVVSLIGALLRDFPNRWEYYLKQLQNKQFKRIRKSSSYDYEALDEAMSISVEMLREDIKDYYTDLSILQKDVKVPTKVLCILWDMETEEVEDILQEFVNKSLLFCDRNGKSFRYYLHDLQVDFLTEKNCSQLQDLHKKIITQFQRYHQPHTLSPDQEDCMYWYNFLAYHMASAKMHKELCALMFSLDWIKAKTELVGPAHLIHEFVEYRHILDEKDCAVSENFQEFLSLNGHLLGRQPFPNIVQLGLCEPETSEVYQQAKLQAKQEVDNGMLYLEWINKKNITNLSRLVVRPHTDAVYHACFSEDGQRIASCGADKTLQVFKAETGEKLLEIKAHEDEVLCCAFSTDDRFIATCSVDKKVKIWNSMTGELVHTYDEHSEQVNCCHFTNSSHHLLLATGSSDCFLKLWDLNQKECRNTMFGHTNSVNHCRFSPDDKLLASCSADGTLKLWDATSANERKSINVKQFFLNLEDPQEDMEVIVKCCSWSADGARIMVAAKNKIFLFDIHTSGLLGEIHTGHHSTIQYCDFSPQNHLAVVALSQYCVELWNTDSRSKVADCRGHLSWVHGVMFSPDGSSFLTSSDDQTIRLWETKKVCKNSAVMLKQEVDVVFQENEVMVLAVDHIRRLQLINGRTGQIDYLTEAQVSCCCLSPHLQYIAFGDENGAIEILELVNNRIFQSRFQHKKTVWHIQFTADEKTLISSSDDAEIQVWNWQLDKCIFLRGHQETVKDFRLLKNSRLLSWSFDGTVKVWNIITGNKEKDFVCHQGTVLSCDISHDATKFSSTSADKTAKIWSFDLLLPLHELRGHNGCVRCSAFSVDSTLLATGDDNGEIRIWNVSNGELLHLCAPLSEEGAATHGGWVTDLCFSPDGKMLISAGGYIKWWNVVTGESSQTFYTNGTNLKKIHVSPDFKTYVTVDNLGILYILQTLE

Caspase-3 = molecular target: T3, Caspase-3 (Homo sapiens, UniProt P42574); assay: SAR Analysis of small molecule inhibitors of Sentrin-specific proteases (SENPs) using a Caspase-3 Selectivity assay. [Related pubchem assays (depositor defined):AID2540, AID2599, AID434973, AID489001]; format: functional
T3 sequence (P42574 whole entry): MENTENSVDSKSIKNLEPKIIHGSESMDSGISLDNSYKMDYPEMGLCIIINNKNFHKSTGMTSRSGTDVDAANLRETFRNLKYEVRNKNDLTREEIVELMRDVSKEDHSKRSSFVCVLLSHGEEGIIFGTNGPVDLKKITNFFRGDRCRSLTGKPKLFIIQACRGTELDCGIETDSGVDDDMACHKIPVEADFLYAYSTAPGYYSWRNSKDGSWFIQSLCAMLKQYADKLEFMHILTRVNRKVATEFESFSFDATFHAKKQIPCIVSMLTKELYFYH

[8] = molecular target: T4, Sentrin-specific protease 7 (Homo sapiens, UniProt Q9BQF6); assay: SENP7 protease inhibitors, SAR follow-up, biochemical, luminescence (AID 504497); format: functional
T4 sequence (Q9BQF6 whole entry): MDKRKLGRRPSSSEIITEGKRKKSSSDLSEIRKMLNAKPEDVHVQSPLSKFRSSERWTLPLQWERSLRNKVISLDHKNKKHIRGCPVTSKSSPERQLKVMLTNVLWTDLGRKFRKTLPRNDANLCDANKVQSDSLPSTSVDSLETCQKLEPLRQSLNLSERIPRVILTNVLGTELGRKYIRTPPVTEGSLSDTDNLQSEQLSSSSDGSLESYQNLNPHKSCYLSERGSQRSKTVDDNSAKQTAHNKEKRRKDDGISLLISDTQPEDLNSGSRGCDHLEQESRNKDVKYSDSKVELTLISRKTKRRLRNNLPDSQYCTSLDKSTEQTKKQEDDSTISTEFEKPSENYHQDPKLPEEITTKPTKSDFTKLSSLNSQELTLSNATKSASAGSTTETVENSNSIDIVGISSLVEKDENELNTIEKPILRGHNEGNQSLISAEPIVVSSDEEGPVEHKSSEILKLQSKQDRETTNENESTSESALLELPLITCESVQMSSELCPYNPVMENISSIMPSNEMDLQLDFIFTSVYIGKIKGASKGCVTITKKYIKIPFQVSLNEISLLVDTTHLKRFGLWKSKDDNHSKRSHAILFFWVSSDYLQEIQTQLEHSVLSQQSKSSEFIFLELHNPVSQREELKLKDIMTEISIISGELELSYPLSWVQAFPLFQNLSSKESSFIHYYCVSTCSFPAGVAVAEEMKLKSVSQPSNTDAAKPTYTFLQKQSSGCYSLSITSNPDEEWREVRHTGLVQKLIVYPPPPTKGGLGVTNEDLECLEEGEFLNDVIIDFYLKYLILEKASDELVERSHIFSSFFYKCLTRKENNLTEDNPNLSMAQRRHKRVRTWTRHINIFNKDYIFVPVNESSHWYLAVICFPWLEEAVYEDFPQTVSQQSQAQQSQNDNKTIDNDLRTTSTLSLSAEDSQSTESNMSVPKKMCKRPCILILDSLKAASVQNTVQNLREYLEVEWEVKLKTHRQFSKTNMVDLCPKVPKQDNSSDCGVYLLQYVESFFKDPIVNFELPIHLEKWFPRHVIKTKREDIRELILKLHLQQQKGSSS

[9] = molecular target: T5, Sentrin-specific protease 6 (Homo sapiens, UniProt Q9GZR1); assay: SAR Analysis of small molecule inhibitors of Sentrin-specific protease 6 (SENP6) using a Luminescent assay. [Related pubchem assays (depositor defined):AID2582, AID2599]; format: functional
T5 sequence (Q9GZR1 whole entry): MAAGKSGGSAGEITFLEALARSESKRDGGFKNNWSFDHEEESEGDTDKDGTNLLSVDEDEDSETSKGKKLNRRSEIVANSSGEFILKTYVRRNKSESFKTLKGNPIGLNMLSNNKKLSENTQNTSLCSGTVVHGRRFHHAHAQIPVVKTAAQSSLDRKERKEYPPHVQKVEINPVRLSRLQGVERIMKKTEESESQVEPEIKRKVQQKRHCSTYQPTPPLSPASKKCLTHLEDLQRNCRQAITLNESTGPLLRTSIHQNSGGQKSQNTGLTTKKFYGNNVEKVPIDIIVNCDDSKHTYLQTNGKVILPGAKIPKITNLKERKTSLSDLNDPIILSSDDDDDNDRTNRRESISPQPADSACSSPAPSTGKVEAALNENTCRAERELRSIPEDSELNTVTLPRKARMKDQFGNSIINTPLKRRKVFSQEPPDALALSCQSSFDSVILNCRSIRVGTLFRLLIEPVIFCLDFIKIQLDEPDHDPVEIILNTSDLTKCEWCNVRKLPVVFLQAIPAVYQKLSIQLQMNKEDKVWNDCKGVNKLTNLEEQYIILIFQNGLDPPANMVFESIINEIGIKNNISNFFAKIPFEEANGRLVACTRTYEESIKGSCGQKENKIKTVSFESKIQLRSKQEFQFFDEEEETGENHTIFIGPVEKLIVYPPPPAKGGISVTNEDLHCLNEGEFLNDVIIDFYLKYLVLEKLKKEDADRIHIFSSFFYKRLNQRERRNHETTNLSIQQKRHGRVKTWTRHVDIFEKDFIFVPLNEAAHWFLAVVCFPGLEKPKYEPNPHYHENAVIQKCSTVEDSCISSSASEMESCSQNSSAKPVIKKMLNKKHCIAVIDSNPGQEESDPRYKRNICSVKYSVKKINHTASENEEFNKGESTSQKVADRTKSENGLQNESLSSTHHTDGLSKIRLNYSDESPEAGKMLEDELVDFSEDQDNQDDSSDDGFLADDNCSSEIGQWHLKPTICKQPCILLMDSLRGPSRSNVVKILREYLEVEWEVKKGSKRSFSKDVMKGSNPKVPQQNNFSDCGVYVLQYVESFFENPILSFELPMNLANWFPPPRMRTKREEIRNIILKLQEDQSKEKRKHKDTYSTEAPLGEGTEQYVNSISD

[10] = molecular target: T6, Sentrin-specific protease 8 (Homo sapiens, UniProt Q96LD8); assay: SENP8 protease inhibitors, SAR follow-up, biochemical, luminescence (AID 504501); format: functional
T6 sequence (Q96LD8 whole entry): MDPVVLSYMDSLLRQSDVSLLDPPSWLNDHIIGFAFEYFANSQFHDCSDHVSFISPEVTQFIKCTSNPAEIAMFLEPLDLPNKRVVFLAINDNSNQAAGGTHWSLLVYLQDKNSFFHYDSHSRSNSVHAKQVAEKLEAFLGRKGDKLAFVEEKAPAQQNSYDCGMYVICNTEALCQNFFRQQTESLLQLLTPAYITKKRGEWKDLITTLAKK

[11] = molecular target: Melanin-concentrating hormone receptor 1 (Homo sapiens, UniProt Q99705); assay: Late-stage fluorescence-based counterscreen for antagonists of the G-protein coupled receptor 7 (GPR7): cell-based dose response assay to identify antagonists of the melanin-concentrating hormone receptor 1 (MCHR1) Set 5.; format: functional
[12] = molecular target: T7, Mitochondrial peptide methionine sulfoxide reductase (Bos taurus, UniProt P54149); format: functional;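 note: absorbance read-out, biochemical high-throughput dose-response screen for MsrA inhibitors, confirmatory; recombinant bovine MsrA coupled to E. coli TrxB with NADPH and selenocystamine; potency is for inhibitors of MsrA activity on DMSO substrate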
T7 sequence (P54149 whole entry): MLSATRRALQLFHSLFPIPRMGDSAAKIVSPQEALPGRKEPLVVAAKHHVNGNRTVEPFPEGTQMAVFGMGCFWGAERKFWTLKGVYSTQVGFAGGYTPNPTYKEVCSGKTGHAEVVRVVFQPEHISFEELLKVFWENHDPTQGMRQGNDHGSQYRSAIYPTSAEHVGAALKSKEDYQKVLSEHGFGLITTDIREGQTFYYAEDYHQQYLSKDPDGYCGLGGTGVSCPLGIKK

[13] = Luminescence Cell-Based Dose Confirmation HTS to Identify Inhibitors of Platelet Dense Granule Release. [Related pubchem assays: 1663 (Primary HTS), 1678 (Summary of Project)]; format: functional
[14] = molecular target: Luciferin 4-monooxygenase (Photinus pyralis, UniProt P08659); assay: firefly luciferase enzyme inhibitors, dose response, biochemical, luminescence (AID 1891)
Sequence of Luciferin 4-monooxygenase (P08659 whole entry): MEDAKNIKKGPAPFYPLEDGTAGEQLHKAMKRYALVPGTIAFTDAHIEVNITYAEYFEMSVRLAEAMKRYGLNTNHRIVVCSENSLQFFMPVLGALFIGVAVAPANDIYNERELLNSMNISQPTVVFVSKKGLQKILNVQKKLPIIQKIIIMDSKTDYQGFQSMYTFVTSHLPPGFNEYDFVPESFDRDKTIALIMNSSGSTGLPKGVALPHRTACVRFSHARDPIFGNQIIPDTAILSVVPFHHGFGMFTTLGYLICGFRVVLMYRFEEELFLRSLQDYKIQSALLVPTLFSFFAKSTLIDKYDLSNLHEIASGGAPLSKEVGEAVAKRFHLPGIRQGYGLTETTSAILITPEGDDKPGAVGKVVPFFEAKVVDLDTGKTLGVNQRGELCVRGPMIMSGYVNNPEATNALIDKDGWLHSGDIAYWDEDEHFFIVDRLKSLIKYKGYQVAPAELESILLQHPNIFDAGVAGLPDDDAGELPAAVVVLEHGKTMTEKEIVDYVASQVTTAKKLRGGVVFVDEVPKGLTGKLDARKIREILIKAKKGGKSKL

Sequence of Protein Wnt-3a (P27467 whole entry): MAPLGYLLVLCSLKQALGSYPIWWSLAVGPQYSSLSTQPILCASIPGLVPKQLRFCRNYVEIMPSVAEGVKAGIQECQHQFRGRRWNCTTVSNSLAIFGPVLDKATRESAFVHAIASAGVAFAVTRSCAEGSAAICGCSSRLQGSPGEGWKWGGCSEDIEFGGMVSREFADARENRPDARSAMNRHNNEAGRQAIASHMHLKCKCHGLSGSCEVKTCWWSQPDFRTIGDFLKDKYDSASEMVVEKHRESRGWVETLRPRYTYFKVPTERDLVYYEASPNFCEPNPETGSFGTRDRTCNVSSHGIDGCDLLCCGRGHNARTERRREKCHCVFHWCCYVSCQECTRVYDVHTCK
Sequence of Potassium voltage-gated channel subfamily KQT member 2 (O88943 whole entry): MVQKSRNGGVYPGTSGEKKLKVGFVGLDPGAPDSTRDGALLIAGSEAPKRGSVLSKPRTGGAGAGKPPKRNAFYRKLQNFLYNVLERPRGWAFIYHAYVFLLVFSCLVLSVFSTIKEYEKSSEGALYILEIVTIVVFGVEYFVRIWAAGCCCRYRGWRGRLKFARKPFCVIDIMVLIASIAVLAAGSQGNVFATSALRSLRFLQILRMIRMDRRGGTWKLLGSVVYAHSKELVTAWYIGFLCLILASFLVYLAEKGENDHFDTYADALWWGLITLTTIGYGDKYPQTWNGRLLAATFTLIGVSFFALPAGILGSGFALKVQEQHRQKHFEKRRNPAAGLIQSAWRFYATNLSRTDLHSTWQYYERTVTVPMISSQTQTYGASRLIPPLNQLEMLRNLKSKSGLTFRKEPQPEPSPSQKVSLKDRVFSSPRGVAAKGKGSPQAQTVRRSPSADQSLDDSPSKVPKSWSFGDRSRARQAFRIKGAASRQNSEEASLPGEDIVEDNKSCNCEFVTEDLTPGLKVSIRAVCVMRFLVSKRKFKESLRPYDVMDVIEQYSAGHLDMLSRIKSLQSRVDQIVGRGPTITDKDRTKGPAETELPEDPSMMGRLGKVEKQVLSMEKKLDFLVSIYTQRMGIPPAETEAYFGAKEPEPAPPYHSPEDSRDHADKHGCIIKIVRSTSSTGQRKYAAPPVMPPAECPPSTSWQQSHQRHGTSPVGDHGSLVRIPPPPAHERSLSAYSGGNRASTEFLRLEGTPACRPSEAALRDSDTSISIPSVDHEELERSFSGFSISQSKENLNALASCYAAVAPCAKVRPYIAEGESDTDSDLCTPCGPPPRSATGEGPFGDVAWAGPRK
Sequence of Melanin-concentrating hormone receptor 1 (Q99705 whole entry): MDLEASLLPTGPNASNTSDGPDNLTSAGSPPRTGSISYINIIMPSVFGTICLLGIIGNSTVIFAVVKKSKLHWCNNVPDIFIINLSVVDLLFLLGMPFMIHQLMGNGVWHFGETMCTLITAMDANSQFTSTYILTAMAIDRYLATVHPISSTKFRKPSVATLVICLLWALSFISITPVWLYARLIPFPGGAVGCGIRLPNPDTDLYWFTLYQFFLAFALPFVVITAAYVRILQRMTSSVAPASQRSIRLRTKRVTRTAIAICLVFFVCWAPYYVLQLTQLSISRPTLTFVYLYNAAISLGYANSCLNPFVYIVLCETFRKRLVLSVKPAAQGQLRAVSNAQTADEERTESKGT

## N=c1c2c(n(Cc3ccc(F)cc3)c3c1CCC3)CCCC2
Protein Wnt-3a
  IC50: 13.8 µM (active)
[1]
  EC50: > 60 µM (not active)
[2]
  EC50: 0.639 µM (active)

## COc1ccc(S(=O)(=O)N2c3ccccc3OCC2C)cc1 (centres undefined)
[3]
  EC50: 13.9 µM (active)

## CC1CCN(C(=O)Cn2c(=O)n(Cc3ccc4c(c3)OCO4)c(=O)c3ccccc32)CC1
[4]
  IC50: 3.11 µM (active)

## CCN1CCCC1CNC(=O)c1ccc2c(c1)N(Cc1cccc(Cl)c1)C(=O)c1ccccc1S2(=O)=O (centres undefined)
[5]
  IC50: 4.22 µM (active)
[6]
  IC50: 8.64 µM (active)

## Cc1cc(NC(=O)C2CC(c3ccc(F)cc3)=NO2)n(-c2ccccc2)n1 (centres undefined)
[7]
  EC50: > 100 µM (inactive)

## C=CCOc1ccc(Br)cc1CNCCCN1CCOCC1
[3]
  EC50: 14.2 µM (active)

## COc1cc(C(=O)Nc2ccccc2F)ccc1OCc1ccc(Cl)cc1
Caspase-3
  IC50: > 99 µM (inactive)
[8]
  IC50: > 99 µM (inactive)
[9]
  IC50: > 99 µM (inactive)
[10]
  IC50: > 99 µM (inactive)

## COc1ccc(Oc2c(Cl)cnn(Cc3cccc4ccccc34)c2=O)cc1F
[11]
  IC50: 2.47 µM (active)

## C/C(=N/O)c1cc(C(C)(C)C)c(O)c(C(C)(C)C)c1
[12]
  IC50: 155 µM (inactive)

## CCNC(=O)[C@H]1O[C@@H](n2cnc3c(N)nc(NCCc4ccc(CCC(=O)O)cc4)nc32)[C@H](O)[C@@H]1O
[5]
  IC50: 0.807 µM (active)
[13]
  EC50: < 0.088 µM (active)
[6]
  IC50: 0.915 µM (active)
[14]
  EC50: > 112 µM (not active)
